We go through 4 compounds from US20050255178A1, “Enhancing the effectiveness of an inhaled therapeutic gas” (priority 2004, published 2005).

The subject of data set [1] is awake lambs. Put plainly: U-46619-induced pulmonary hypertension in awake lambs: hemodynamics, gas exchange, cGMP release. Type of data set: in vivo. As to the method:
In awake lambs instrumented with vascular catheters and a tracheostomy tube, the thromboxane analog U-46619 was infused intravenously to increase mean pulmonary arterial pressure (PAP) to 35 mm Hg. After a stabilization period, seven animals received an intravenous infusion of BAY 41-2272 (Alexis Biochemicals, Lausen, Switzerland) at 0.03, 0.1, and 0.3 mg·kg^−1·h^−1 administered for 30 minutes each. In another eight animals, inhaled NO (2, 10, and 20 ppm) was administered in random order for 10 minutes each followed by 15 minute NO-free periods. An intravenous infusion of BAY 41-2272 (0.1 mg·kg^−1·h^−1) was then started. After increasing the infusion of U-46619 to maintain PAP at 35 mmHg, NO was inhaled as before BAY 41-2272. In an additional eight lambs, which received an intravenous infusion of the NO synthase inhibitor, L-NAME (25 mg/kg+5 mg·kg^−1·h^−1), together with U-46619, NO was inhaled before and during the infusion of BAY 41-2272.
Data were analyzed using repeated measures ANOVA followed by Dunnett adjustment. A p<0.05 was considered statistically significant.

The subject of data set [2] is U-46619-induced pulmonary vasoconstriction. Nature of the data set: CO inhaled alone or in combination with BAY 41-2272 during U-46619-induced pulmonary vasoconstriction. Type of data set: in vivo. The source says:
Systemic hemodynamics, lung gas exchange, and transpulmonary cGMP release were also unchanged by CO inhalation. Arterial concentrations of carboxyhemoglobin gradually rose from 1.0±0.2% to 4.7±0.4% (P<0.01) and from 1.4±0.1% to 5.2±0.2% (P<0.01), respectively, after breathing 500 ppm CO alone or in combination with BAY 41-2272.

Data set [3] has as its system mouse model of pulmonary hypertension. Put plainly: Mouse model of pulmonary hypertension (U46619): pulmonary and systemic arterial pressures. Type of data set: in vivo, mice. The protocol: A mouse model of pulmonary hypertension was used to examine the combined effects of YC-1 and inhaled NO. Three mice (average weight 25 g) were anesthetized, their chest opened, catheters were placed in the carotid and pulmonary arteries, and pulmonary and systemic arterial pressures were recorded (FIG. 4). U46619, a thromboxane analogue was administered intravenously to induce pulmonary vasoconstriction. NO (4 parts per million) was added to the inspired gas, and pulmonary vasodilation was measured. Thereafter, NO inhalation was discontinued, and the duration of the pulmonary vasodilator effect was measured.
YC-1 was administered as boluses over one minute (10, 50 and 100 ug), and both pulmonary artery pressure and systemic blood pressure were measured. Thereafter, YC-1 was administered as an infusion (5 ug/min), and the rate of U46619 infusion was increased (2- to 3-fold) to re-establish pulmonary vasoconstriction. The pulmonary vasodilator response to breathing 4 ppm NO was measured, and duration of pulmonary vasodilation after discontinuing NO was assessed.

[4] abbreviates: BAY 41-2272 0.1 mg·kg^−1·h^−1, L-NAME 25 mg/kg+5 mg·kg^−1·h^−1 iv, n=8.
Where [5] appears, read: BAY 41-2272 0.1 mg·kg^−1·h^−1 iv with inhaled NO, P<0.05.
Setting [6] is: BAY 41-2272 infusion with NO inhaled at 10 and 20 ppm.
The mark [7] stands for this setting: BAY 41-2272 infusion with NO inhaled at 10 and 20 ppm, P<0.05 vs. baseline PH.
Where [8] appears, read: BAY 41-2272 iv infusion 0.03, 0.1, 0.3 mg·kg^−1·h^−1, 30 min each, n=7.
The mark [9] stands for this setting: during BAY 41-2272 infusion, inhalation of 10 and 20 ppm NO, P<0.01 vs. baseline PH.
The mark [10] stands for this setting: inhaled NO alone at 20 ppm, P<0.05.
[11] abbreviates: YC-1 boluses over one minute (10, 50 and 100 ug).

On to `Nc1nc(-c2nn(Cc3ccccc3F)c3ncccc23)ncc1C1CC1` [BAY 41-2272, 3-(4-amino-5-cyclopropylpyrimidine-2-yl)-1-(2-fluorobenzyl)-1H-pyrazolo[3,4-b]pyridine], for which, in data set [1] (setting [4]), the “pulmonary vasodilation induced by BAY 41-2272 in presence of L-NAME” value is on record as “but not pulmonary vasodilation” and the “systemic vasodilation induced by BAY 41-2272 in presence of L-NAME” value is reported as “abolished”. Also, the “reduction of PAP induced by inhaled NO” value in data set [1] (BAY 41-2272 0.1 mg·kg^−1·h^−1 iv with inhaled NO 2, 10, 20 ppm, P<0.05) is recorded as “markedly enhanced”. Further, in data set [1] (setting [5]), the “reduction of PVRI induced by inhaled NO” value is “markedly enhanced” and the “reduction of PVRI/SVRI induced by inhaled NO” value is given as “markedly enhanced”. Also, in data set [1] (setting [6]), the HR result is “remained unchanged”, the MAP result was “remained unchanged” and the “central venous pressure (CVP)” value is listed as “remained unchanged”. Besides, in data set [1] (BAY 41-2272 infusion with NO inhaled at 10 and 20 ppm vs inhaled NO alone, P<0.05), the “reduction of right ventricle stroke work index (RVSWI)” value is listed as “to a greater extent than did inhaled NO alone”. In data set [1] (setting [7]), the “cardiac index (CI)” value is listed as “increments”, the “pulmonary capillary wedge pressure (PCWP)” value is reported as “minor reductions”, the “stroke volume index (SVI)” value is on record as “increments” and the “systemic vascular resistance index (SVRI)” value is recorded as “minor reductions”. In data set [1] (setting [8]), the “mean PAP (percent change from pre-treatment pulmonary hypertension value)” value is “dose-dependent reductions” and the “pulmonary vascular resistance index (PVRI) (percent change from pre-treatment pulmonary hypertension value)” value is “dose-dependent reductions”. Besides, the “reductions in mean PAP and PVRI compared with corresponding reductions in MAP and SVRI” value in data set [1] (BAY 41-2272 iv infusion 0.03-0.3 mg·kg^−1·h^−1, p<0.05) is “significantly greater”. The “increase of transpulmonary cGMP release” value in data set [1] (co-administration of BAY 41-2272 and inhaled NO vs inhaled NO alone, P<0.05) is on record as “to a greater extent than did inhaled NO alone”. In addition, the “persistence of pulmonary vasodilation (T1/2) after NO was discontinued” value in data set [1] (during BAY 41-2272 infusion vs before, P<0.05) is on record as “greater than that before the infusion”. In data set [1] (setting [9]), the “P(A-a)O2” value is reported as “reduced”, the PaO2/FiO2 result is on record as “augmented” and the Qs/Qt result is on record as “reduced”. Moreover, the “plasma BAY 41-2272 concentrations” value in data set [1] (during the period of NO administrations, iv infusion 0.1 mg·kg^−1·h^−1) was “remained at a stable level”. For the same compound, the “plasma levels of BAY 41-2272” value in data set [2] (in vivo) is given as “remained stable”. Further, in data set [2] (inhalation of CO following administration of / in combination with BAY 41-2272), the “vasodilator effect on U-46619-induced pulmonary vasoconstriction” value is on record as “no vasodilator effect”.

On to `[C-]#[O+]` [CO, carbon monoxide], for which, in data set [2] (CO inhalation), the lung gas exchange result is recorded as “unchanged”, the systemic hemodynamics result is listed as “unchanged” and the “transpulmonary cGMP release” value is “unchanged”. Also, in data set [2] (inhalation of CO alone), the “vasodilator effect on U-46619-induced pulmonary vasoconstriction” value is on record as “no vasodilator effect”.

`[N]=O` [NO, Nitric oxide]: in data set [1] (inhaled NO alone), the “T1/2 of return of PAP to baseline pulmonary hypertension after NO was discontinued” value was under 1 min and the arterial methemoglobin concentrations result is recorded as “no significant changes”. The pulmonary vasodilation result in data set [1] (inhaled NO alone 2, 10, 20 ppm, 10 min each) is “dose-dependent, selective pulmonary vasodilation”. In data set [1] (inhaled NO alone 10 and 20 ppm, P<0.01), the “transpulmonary cGMP release” value is on record as “increased”. Moreover, in data set [1] (setting [10]), the “P(A-a)O2” value was “reduced”, the PaO2/FiO2 entry is on record as “increased” and the Qs/Qt entry is on record as “reduced”.

For `OCc1ccc(-c2nn(Cc3ccccc3)c3ccccc23)o1` [YC-1, 3-(5′-hydroxymethyl-2′-furyl)-1-benzylindazole], in data set [3] (4 ppm NO during YC-1 infusion (5 ug/min) vs NO alone), the “pulmonary vasodilator response to breathing NO” value is on record as “greater pulmonary vasodilator response than did breathing NO alone”. In addition, the “systemic vasodilation on addition of NO inhalation to YC-1” value in data set [3] (4 ppm NO, YC-1 infusion 5 ug/min) is listed as “did not cause systemic vasodilation”. In data set [3] (setting [11]), the “pulmonary vasodilation (pulmonary artery pressure)” value is “induced both pulmonary and systemic vasodilation”; the “systemic vasodilation (systemic blood pressure)” value was “induced both pulmonary and systemic vasodilation”. The “duration of pulmonary vasodilation after discontinuing NO inhalation” value in data set [3] (during YC-1 infusion (5 ug/min) vs before, P<0.01) is recorded as “greater during an infusion of YC-1 than before”.
